Experimental data from patent US8716315B2, “Analogs of thalidomide as potential angiogenesis inhibitors” (The United States of America as represented by the …, priority 2001, dated 2014).

Key:
HUVEC = HUVEC MTT assay; format: cell-based; settings: for inhibition, growth curves treated vs control wells: at about 72 hours
Description: HUVEC MTT assays were performed for the selected thalidomide analogs of the present invention to determine a rough estimate of the efficacy of such compounds in the inhibition of angiogenesis. For the MTT assay, 1.0 to 2.5×10^3 cells per well were plated in 96-well plates in 0.1 ml medium, in triplicate. After 24 hours, the cells were exposed to treatment for 5 days. One plate was analyzed every 24 hours by the addition of 20 μL of 5 mg/ml MTT solution (available from Sigma of St. Louis, Mo.) in PBS, to each well for 4 hours. The MTT solution was aspirated and 170 μL DMSO was added to each well to dissolve the formazan crystals. The absorbance at 540 nm was measured using a Biokinetics plate reader (available from Bio-Tek Instruments of Winooski, Vt.). Triplicate wells were assayed for each condition. The assay protocol described herein stems from Kruger et al., a protein kinase C inhibitor, inhibits endothelial cell proliferation and angiogenic hypoxic response, Invasion and Metastasis, 18(4): 209-218 (incorporated herein by reference).
The following results for the selected compounds were determined measured utilizing growth curves comparing control wells to treated wells using the MTT assays.

rat aortic rings = experiment: Anti-angiogenic activity utilizing rat aortic rings; format: cell-based, rat (Sprague-Dawley); settings: daily dosage of 100 μM, five-day treatment, image analysis vs DMSO control rings; for inhibition at 100 µM: Rattus norvegicus, 120 h, read-out: angiogenesis inhibition activity
Source text: The efficacy of selected thalidomide analogs of the present invention was studied by five-day treatment of rat aortic rings (utilizing Sprague-Dawley rats available from Charles River Labs) with varied doses of the analogs. A DMSO control was utilized (FIG. 1). The results, determined using image analysis comparing control rings versus the treated rings (using NIM Image software), of the studies are as follows: […]

human saphenous veins = experiment: Anti-angiogenic activity utilizing human saphenous vein; format: cell-based; settings: 336 h, daily dosages of 100 μM, 14 day treatment, image analysis, read-out: angiogenesis inhibition activity level
Description: The efficacy of 2-(1-hydroxymethyl-2,6-dioxo-piperidin-3-yl)-1,3-dihydro-2H-isoindole-1,3-dione (CPS11) was studied by 14 day treatment of human saphenous veins (obtained through an IRB-approved protocol, Surgery Brand NCI) with 100 μM doses of the analog. A CAI, carboxyamido-triazole, 12 μg/ml control was utilized.

Toxicology screen = settings: i.p., single dose

SMILES	inhibition (cytostatic activity), growth curves treated vs control wells (HUVEC; 10 μM)	inhibition (cytostatic activity), growth curves treated vs control wells (HUVEC; 100 μM)	inhibition at 100 µM (rat aortic rings)	toxicology screen outcome (Toxicology screen; 200 mg/kg)	also measured
O=C1NC(=O)C(N2C(=O)c3ccccc3C2=O)CC1O (centres unmarked) [CPS3, 2-(5-hydroxy-2,6-dioxo-piperidin-3-yl)-1H-isoindole-1,3[2H]-dione]	No cytostatic activity	No cytostatic activity	~50%		melting point: 195 to 230 °C
O=C1CCC(N2C(=O)c3ccccc3C2=O)C(=O)N1CO (centres unmarked) [CPS11, 2-(1-hydroxymethyl-2,6-dioxo-piperidin-3-yl)-1,3-dihydro-2H-isoindole-1,3-dione]			90%		inhibition, growth curves treated vs control wells (HUVEC; 10 μM): about 60%; inhibition, growth curves treated vs control wells (HUVEC; 100 μM): > 90%; inhibition at 100 µM (human saphenous veins): 90%; toxicology screen outcome (Toxicology screen; 10 mg/kg): safe; toxicology screen outcome (Toxicology screen; 100 mg/kg): safe; sedation noted (Toxicology screen; 10 and 100 mg/kg): Some amount of sedation
Cc1ccc(C)c2c1C(=O)N(c1ccc(F)cc1F)C2=O [CPS42, 2-(2,4-difluorophenyl)-4,7-dimethyl-1H-isoindole-1,3(2H)-dione]	no such activity	about 44%		safe	sedation noted (Toxicology screen; 200 mg/kg): Slight sedation; time after injection at which sedation was noted (Toxicology screen; 200 mg/kg): ≤ 15 min
CCC1(N2C(=O)c3ccccc3C2=O)C(=O)NC(=O)N(C2CCCCC2)C1=O (centres unmarked) [CPS44, 1-cyclohexyl-5-ethyl-5-phthalimidobarbituric acid]	no such activity	about 50%			angiogenesis inhibition activity (rat aortic rings): No inhibition of angiogenesis
CCC1(N2C(=O)c3c(F)c(F)c(F)c(F)c3C2=O)C(=O)NC(=O)N(c2ccccc2)C1=O (centres unmarked) [CPS45, 5-ethyl-1-phenyl-5-(tetrafluorophthalimido)barbituric acid]	> 90%	> 90%	90%	lethal dose	time to death after treatment (Toxicology screen; 200 mg/kg): ≤ 2.5 h
O=C1c2c(F)c(F)c(F)c(F)c2C(=O)N1c1c[nH]c(=O)[nH]c1=O [CPS48, 5-(tetrafluorophthalimido)pyrimidine-2,4(1H,3H)-dione]	about 85%	about 85%	90%		
O=C1c2c(F)c(F)c(F)c(F)c2C(=O)N1c1ccc(F)cc1F [CPS49, 2-(2,4-difluoro-phenyl)-4,5,6,7-tetrafluoro-1H-isoindole-1,3(2H)-dione]	no such activity	about 90%		lethal dose	angiogenesis inhibition activity (rat aortic rings): extensive angiogenesis inhibition activity; time to death after treatment (Toxicology screen; 200 mg/kg): ≤ 18 h
